Legend:
[1] = biological target: PRMT5/MEP50 complex (Homo sapiens, UniProt O14744); test: Inhibition of recombinant human fetal brain FLAG-tagged PRMT5/full length human testis 6His-tagged MEP50 expressed in baculovirus infected insect Sf9 cells using human histone H4 (1 to 15 residues) as substrate preincubated for 30 mins followed by [3H]-SAM addition
[2] = biological target: Protein arginine N-methyltransferase 5 (Homo sapiens, UniProt O14744); test: Inhibition of PRMT5 in human Z138 cells assessed as decrease in di-methyl arginine levels after 96 hrs by Western blot method; type: cell-based
[3] = Antiproliferative activity against human Z138 cells assessed as inhibition of cell viability after 5 days by Cell-Titer Glo assay; type: functional, cell-based; conditions: Z-138, 120 h

Sequence of Protein arginine N-methyltransferase 5 (O14744 whole entry): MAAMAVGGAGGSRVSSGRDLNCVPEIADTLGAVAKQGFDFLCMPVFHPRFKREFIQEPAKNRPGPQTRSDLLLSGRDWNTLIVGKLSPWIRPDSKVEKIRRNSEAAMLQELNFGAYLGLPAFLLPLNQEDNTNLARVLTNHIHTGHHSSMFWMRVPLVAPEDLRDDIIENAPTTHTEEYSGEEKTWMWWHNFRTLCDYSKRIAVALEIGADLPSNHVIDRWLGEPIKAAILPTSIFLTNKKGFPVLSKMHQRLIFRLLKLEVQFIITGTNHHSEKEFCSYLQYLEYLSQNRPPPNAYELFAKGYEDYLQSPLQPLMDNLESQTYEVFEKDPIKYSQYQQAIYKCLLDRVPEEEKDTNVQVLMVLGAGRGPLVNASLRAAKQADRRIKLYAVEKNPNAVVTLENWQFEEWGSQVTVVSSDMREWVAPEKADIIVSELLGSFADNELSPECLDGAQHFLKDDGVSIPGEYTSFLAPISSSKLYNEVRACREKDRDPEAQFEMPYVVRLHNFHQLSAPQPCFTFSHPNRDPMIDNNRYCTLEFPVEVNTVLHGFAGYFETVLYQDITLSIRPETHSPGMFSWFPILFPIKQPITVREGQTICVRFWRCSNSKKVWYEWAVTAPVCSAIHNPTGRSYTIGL
Sequence of PRMT5/MEP50 complex (O14744 whole entry, the tested form may be a part): as the sequence (O14744 whole entry) above
Sequence of PRMT5/MEP50 complex (Q9BQA1 whole entry, further chain, the tested form may be a part): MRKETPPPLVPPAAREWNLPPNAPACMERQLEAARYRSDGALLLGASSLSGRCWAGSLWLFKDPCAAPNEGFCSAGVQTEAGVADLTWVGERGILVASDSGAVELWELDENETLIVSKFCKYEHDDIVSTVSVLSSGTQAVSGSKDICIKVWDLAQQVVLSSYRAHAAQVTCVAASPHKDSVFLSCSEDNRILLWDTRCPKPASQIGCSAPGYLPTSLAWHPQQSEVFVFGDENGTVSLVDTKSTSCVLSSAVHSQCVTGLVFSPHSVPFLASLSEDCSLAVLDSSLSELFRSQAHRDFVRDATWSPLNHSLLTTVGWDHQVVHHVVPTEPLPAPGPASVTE

SMILES | IC50 [1] | EC50 [2] | EC50 [3]
COc1ccc(-c2cccc(OCC(O)CN3CCc4ccccc4C3)c2)c(C)c1 (centres undefined) | 0.101 to 1 µM | 1 to 10 µM | 10 to 40 µM
CS(=O)(=O)N1CCN(c2ccccc2OCC(=O)NCC(O)CN2CCc3ccccc3C2)CC1 (centres undefined) | 0.101 to 1 µM | 0.101 to 1 µM | > 20 µM
Oc1cccc(-c2cccc(OCC(O)CN3CCc4ccccc4C3)c2)c1 (centres undefined) | 0.101 to 1 µM | 1 to 10 µM | 10 to 40 µM
OC(COc1cccc(-c2cccc3c2oc2ccccc23)c1)CN1CCc2ccccc2C1 (centres undefined) | 0.101 to 1 µM | 1 to 10 µM | 10 to 40 µM
O=C(NC[C@H](O)CN1CCc2ccccc2C1)Nc1ccccc1 | 0.101 to 1 µM | 0.101 to 1 µM | > 20 µM
CC(C)n1cnc2ccc(-c3cccc(OCC(O)CN4CCc5ccccc5C4)c3)cc21 (centres undefined) | 0.101 to 1 µM | 0.101 to 1 µM | 10 to 40 µM
COc1ccc(OCC(=O)NCC(O)CN2CCc3ccccc3C2)cc1 (centres undefined) | 0.101 to 1 µM | 0.101 to 1 µM | 10 to 50 µM
CC(=O)Nc1cccc(C(=O)NCC(O)CN2CCc3ccccc3C2)c1 (centres undefined) | 0.101 to 1 µM | 0.101 to 1 µM | 10 to 50 µM
Cc1ccc(N2CCN(CC(O)CN3CCc4ccccc4C3)C(=O)C2)cc1 (centres undefined) | 0.101 to 1 µM | 0.101 to 1 µM | > 20 µM
COc1ccc(-c2cccc(OCC(O)CN3CCc4ccccc4C3)c2)cc1Cl (centres undefined) | 0.101 to 1 µM | 10 to 40 µM | > 20 µM
O=C(COc1ccccc1)NC[C@H](O)CN1CCc2ccccc2C1 | 0.101 to 1 µM | 0.101 to 1 µM | 10 to 50 µM
Cc1ccc(F)c(-c2cccc(OCC(O)CN3CCc4ccccc4C3)c2)c1 (centres undefined) | 0.101 to 1 µM | 1 to 10 µM | > 20 µM
Cc1ccccc1OCC(=O)NCC(O)CN1CCc2ccccc2C1 (centres undefined) | 0.101 to 1 µM | 0.101 to 1 µM | 1 to 10 µM
OC(COc1cccc(-c2csc3ccccc23)c1)CN1CCc2ccccc2C1 (centres undefined) | 0.101 to 1 µM | 1 to 10 µM | > 20 µM
CC(=O)c1ccc(-c2cccc(OCC(O)CN3CCc4ccccc4C3)c2)cc1 (centres undefined) | 0.101 to 1 µM | 1 to 10 µM | > 20 µM
Cn1ncc2cnc(-c3cccc(OCC(O)CN4CCc5ccccc5C4)c3)cc21 (centres undefined) | 0.101 to 1 µM | 0.101 to 1 µM | 10 to 40 µM
Cn1cnc2cc(-c3cccc(OCC(O)CN4CCc5ccccc5C4)c3)ccc21 (centres undefined) | 0.101 to 1 µM | 0.101 to 1 µM | 10 to 40 µM
CC(=O)c1cccc(-c2cccc(OCC(O)CN3CCc4ccccc4C3)c2)c1 (centres undefined) | 0.101 to 1 µM | 1 to 10 µM | 10 to 40 µM
Cn1cnc2ccc(-c3cc(NCC(O)CN4CCc5ccccc5C4)n[nH]3)cc21 (centres undefined) | 0.101 to 1 µM | 0.101 to 1 µM | > 20 µM
O=c1cc(Nc2ccccc2)ccn1C[C@@H](O)CN1CCc2ccccc2C1 | 0.101 to 1 µM | 0.101 to 1 µM | > 20 µM
O=C1COc2ccc(-c3cccc(OCC(O)CN4CCc5ccccc5C4)c3)cc2N1 (centres undefined) | 0.101 to 1 µM | 1 to 10 µM | 10 to 40 µM
O=C(NCC(O)CN1Cc2ccccc2C1)c1cccc(-c2ccccn2)c1 (centres undefined) | 0.101 to 1 µM | 1 to 10 µM | > 20 µM

SMILES | IC50 [1] | EC50 [2] | EC50 [3]
Cn1cnc2cnc(-c3cccc(OCC(O)CN4CCc5ccccc5C4)c3)nc21 (centres undefined) | 0.101 to 1 µM | 0.101 to 1 µM | 1 to 10 µM
CN1CCN(c2ccc(-c3cccc(OCC(O)CN4CCc5ccccc5C4)c3)cn2)CC1 (centres undefined) | 0.101 to 1 µM | 1 to 10 µM | 1 to 10 µM
O=C(COc1cccc2ncc(=O)[nH]c12)NCC(O)CN1CCc2ccccc2C1 (centres undefined) | 0.101 to 1 µM | 1 to 10 µM | > 20 µM
O=C(CNc1ccccc1)NCC(O)CN1CCc2ccccc2C1 (centres undefined) | 1 to 10 µM | 1 to 10 µM | > 20 µM
O=C(COc1ccccc1C1CCNC1)NCC(O)CN1CCc2ccccc2C1 (centres undefined) | 1 to 10 µM | 1 to 10 µM | > 20 µM
CS(=O)(=O)c1ccc(-c2cccc(OCC(O)CN3CCc4ccccc4C3)c2)cc1 (centres undefined) | 0.101 to 1 µM | 1 to 10 µM | 10 to 40 µM
N#Cc1ccccc1OCC(=O)NCC(O)CN1CCc2ccccc2C1 (centres undefined) | 0.101 to 1 µM | 0.101 to 1 µM | 10 to 50 µM
O=C(COc1cccc2cccnc12)NC[C@H](O)CN1CCc2ccccc2C1 | 0.101 to 1 µM | 0.101 to 1 µM | 10 to 50 µM
CN(C)c1ccc(-c2cccc(OCC(O)CN3CCc4ccccc4C3)c2)cc1 (centres undefined) | 0.101 to 1 µM | 1 to 10 µM | > 20 µM
COc1ccc2cccc(OCC(=O)NC[C@@H](O)CN3CCc4ccccc4C3)c2n1 | < 0.1 µM | < 0.1 µM | 1 to 10 µM
OC(COc1cccc(-c2cc(C(F)(F)F)ccc2Cl)c1)CN1CCc2ccccc2C1 (centres undefined) | 0.101 to 1 µM | 1 to 10 µM | 10 to 40 µM
O=C(NCC(O)CN1CCc2ccccc2C1)c1cccc(CNC2CCOCC2)c1 (centres undefined) | < 0.1 µM | 0.101 to 1 µM | 10 to 50 µM
Cn1nccc1C(=O)Nc1cccc(OCC(O)CN2CCc3ccccc3C2)c1 (centres undefined) | 1 to 10 µM | 1 to 10 µM | > 20 µM
CN1CCOc2cccc(OCC(=O)NCC(O)CN3CCc4ccccc4C3)c21 (centres undefined) | < 0.1 µM | < 0.1 µM | 0.101 to 1 µM
O=C(COc1ccccc1-c1cc[nH]n1)NCC(O)CN1Cc2ccccc2C1 (centres undefined) | 0.101 to 1 µM | 0.101 to 1 µM | > 20 µM
OC(COc1cccc(-c2ccc3[nH]ncc3c2)c1)CN1CCc2ccccc2C1 (centres undefined) | 0.101 to 1 µM | 1 to 10 µM | > 20 µM
OC(COc1cccc(-c2cc(OC(F)(F)F)ccc2Cl)c1)CN1CCc2ccccc2C1 (centres undefined) | 0.101 to 1 µM | 10 to 40 µM | > 20 µM
OC(COc1cccc(-c2cccc(F)c2F)c1)CN1CCc2ccccc2C1 (centres undefined) | 0.101 to 1 µM | 10 to 40 µM | 10 to 40 µM
OC(COc1cccc(-c2ccc3ncn(C4CCNC4)c3c2)c1)CN1CCc2ccccc2C1 (centres undefined) | < 0.1 µM | 0.101 to 1 µM | 1 to 10 µM
CNS(=O)(=O)c1ccccc1OCC(=O)NCC(O)CN1CCc2ccccc2C1 (centres undefined) | < 0.1 µM | 0.101 to 1 µM | 1 to 10 µM
CS(=O)(=O)Nc1cccc(C(=O)NCC(O)CN2CCc3ccccc3C2)c1 (centres undefined) | < 0.1 µM | 0.101 to 1 µM | 1 to 10 µM

More lines, main results first:

IC50 [1] | EC50 [2] | SMILES | EC50 [3]
< 0.1 µM | 0.101 to 1 µM | CN(C)S(=O)(=O)c1ccccc1OCC(=O)NCC(O)CN1Cc2ccccc2C1 (centres undefined) | 1 to 10 µM
< 0.1 µM | < 0.1 µM | O=C(Cn1ccc2cnc(-c3ccnc(NCC(O)CN4CCc5ccccc5C4)c3)nc21)N1CCOCC1 (centres undefined) | 0.101 to 1 µM
< 0.1 µM | 0.101 to 1 µM | O=C(COc1c(CN2CCOCC2)ccc2cccnc12)NC[C@H](O)CN1CCc2ccccc2C1 | 10 to 50 µM
< 0.1 µM | 0.101 to 1 µM | Cn1cnc2ccc(-c3cccc(OCC(O)CN4CCc5ccccc5C4)c3)nc21 (centres undefined) | 0.101 to 1 µM
< 0.1 µM | 0.101 to 1 µM | CN1C(=O)COc2cccc(OCC(=O)NCC(O)CN3CCc4ccccc4C3)c21 (centres undefined) | 10 to 50 µM
< 0.1 µM | 0.101 to 1 µM | CN(C)CCOc1cccc(C(=O)NCC(O)CN2CCc3ccccc3C2)c1 (centres undefined) | 10 to 50 µM
< 0.1 µM | 0.101 to 1 µM | OC(CNc1cc(-c2ncc3ccn(C4CNC4)c3n2)ccn1)CN1CCc2ccccc2C1 (centres undefined) | 1 to 10 µM
< 0.1 µM | < 0.1 µM | O=C(NCC(O)CN1CCc2ccccc2C1)c1cccc(NC2CCOCC2)c1 (centres undefined) | 0.101 to 1 µM
< 0.1 µM | < 0.1 µM | Cn1ncc2c(OCC(=O)NCC(O)CN3CCc4ccccc4C3)cccc21 (centres undefined) | 1 to 10 µM
< 0.1 µM | 0.101 to 1 µM | CN1CC(n2cnc3ccc(-c4cccc(OCC(O)CN5CCc6ccccc6C5)c4)cc32)C1 (centres undefined) | 1 to 10 µM
< 0.1 µM | 0.101 to 1 µM | OC(COc1cccc(-c2ccc3ncn(C4COC4)c3c2)c1)CN1CCc2ccccc2C1 (centres undefined) | 10 to 40 µM
< 0.1 µM | < 0.1 µM | O=C(NC[C@H](O)CN1CCc2ccccc2C1)c1cccc(-c2ccccn2)c1 | 0.101 to 1 µM
< 0.1 µM | 0.101 to 1 µM | Cn1cc2ccc(-c3cccc(NCC(O)CN4CCc5ccccc5C4)c3)nc2n1 (centres undefined) | 10 to 40 µM
< 0.1 µM | 0.101 to 1 µM | OC(CNc1cc(-c2ccc3ncn(C4CCNCC4)c3c2)ccn1)CN1CCc2ccccc2C1 (centres undefined) | 1 to 10 µM
< 0.1 µM | < 0.1 µM | OC(CNc1cc(-c2ncc3ccn(C4CCNCC4)c3n2)ccn1)CN1CCc2ccccc2C1 (centres undefined) | 0.101 to 1 µM
< 0.1 µM | 0.101 to 1 µM | OC(COc1cccc(-c2cccc3cccnc23)c1)CN1CCc2ccccc2C1 (centres undefined) | 10 to 40 µM
< 0.1 µM | 0.101 to 10 µM | Cn1cnc2ccc(-c3cccc(OCC(O)CN4CCc5ccccc5C4)c3)cc21 (centres undefined) | 1 to 20 µM
< 0.1 µM | < 0.1 µM | CC(Oc1cccc2cccnc12)C(=O)NCC(O)CN1CCc2ccccc2C1 (centres undefined) | 0.101 to 1 µM
< 0.1 µM | 0.101 to 1 µM | O=C(COc1ccccc1C1CCNCC1)NCC(O)CN1CCc2ccccc2C1 (centres undefined) | > 20 µM
< 0.1 µM | < 0.1 µM | O=C(COc1cccc2c1OCCO2)NCC(O)CN1CCc2ccccc2C1 (centres undefined) | 1 to 10 µM
< 0.1 µM | 0.101 to 1 µM | OC(CNc1cc(-c2ccc3ncn(C4CCOCC4)c3c2)ccn1)CN1CCc2ccccc2C1 (centres undefined) | 1 to 10 µM
< 0.1 µM | < 0.1 µM | O=C(NCC(O)CN1CCc2ccccc2C1)c1cccc(-c2ccncc2)c1 (centres undefined) | 1 to 10 µM
< 0.1 µM | < 0.1 µM | Cn1cnc2ccc(-c3ccnc(NCC(O)CN4CCc5ccccc5C4)c3)nc21 (centres undefined) | 1 to 10 µM
< 0.1 µM | 0.101 to 1 µM | CN1CCC(c2cccc(C(=O)NCC(O)CN3CCc4ccccc4C3)c2)C1 (centres undefined) | 10 to 50 µM
< 0.1 µM | 0.101 to 1 µM | Cn1cnc2ccc(-c3ccnc(NCC(O)CN4CCc5ccccc5C4)c3)cc21 (centres undefined) | 1 to 10 µM

Source: ChEMBL document CHEMBL3879915, “Methods of inhibiting PRMT5” (2014)
